# Results: patent publication US8940756B2, “Dihydronaphthyridines and related compounds useful as kinase inhibitors for the treatment of proliferative diseases” (Deciphera Pharmaceuticals, Inc., priority 2012, dated 2015)
# How the values were obtained:
# [1] = test system: GIST430 cells; experiment: GIST 430 Cell Proliferation Assay; assay type: cell-based; details: Homo sapiens, resazurin, 115 hours + 5 hours
# Procedure: GIST48, GIST430, and GIST882 cells were obtained from J. Fletcher (Brigham and Women's Hospital, Boston, Mass.). GIST T1 cells were obtained from B. Rubin (Cleveland Clinic, Cleveland, Ohio) and Professor Takahiro Taguchi (Kochi Medical School, Nankoku, Kochi, Japan). Briefly, GIST48 and GIST 882 cells were grown in RPMI 1640 medium supplemented with 15% characterized fetal bovine serum (Invitrogen, Carlsbad, Calif.), 1 unit/mL penicillin G, 1 μg/ml streptomycin, and 0.29 mg/mL L-glutamine at 37° C., 5% CO2, and 95% humidity. GIST430 cells were grown in Ham's F10 medium supplemented with 15% characterized fetal bovine serum (Invitrogen, Carlsbad, Calif.), 30 mg/L bovine pituitary extract (BD Biosciences, San Jose, Calif.), 0.5% Mito+ serum extender (BD Biosciences, San Jose, Calif.), 1 unit/mL penicillin G, 1 μg/ml streptomycin, and 0.29 mg/mL L-glutamine at 37° C., 5% CO2, 95% humidity. GIST T1 cells were grown in DMEM medium supplemented with 10% characterized fetal bovine serum (Invitrogen, Carlsbad, Calif.), 1 unit/mL penicillin G, 1 ng/ml streptomycin, and 0.29 mg/mL L-glutamine at 37° C., 5% CO2, and 95% humidity.
# A serial dilution of test compound was dispensed into a 384-well black clear bottom plate (Corning, Corning, N.Y.). Two thousand five-hundred cells were added per well in 50 μL complete growth medium. Plates were incubated for 115 hours at 37° C., 5% CO2, 95% humidity. At the end of the incubation period 10 μL of a 440 μM solution of resazurin (Sigma, St. Louis, Mo.) in PBS was added to each well and incubated for an additional 5 hours at 37° C., 5% CO2, 95% humidity. Plates were read on a Synergy2 reader (Biotek, Winooski, Vt.) using an excitation of 540 nm and an emission of 600 nm.
# [2] = molecular target: Phospho-KIT (Tyr719) in GIST430 cells (Homo sapiens, UniProt P10721); experiment: GIST430 KIT Western Blot; assay type: cell-based; details: 4 hours, read-out: pKIT suppression by western blot analysi GIST430
# [3] = molecular target: Phospho-KIT (Tyr719) in GIST48 cells (Homo sapiens, UniProt P10721); experiment: GIST48 KIT Western Blot; assay type: cell-based; details: 4 hours, read-out: pKIT suppression by western blot analysi GIST48
# [4] = molecular target: T1, c-KIT VVDV kinase (V559 and V560 deleted and D816V mutation, Seq ID no. 5) (Homo sapiens, UniProt P10721, D816V/DEL559-560); experiment: cKIT-VVDV Kinase Assay; assay type: biochemical; details: enzymatic assay, ATP 200 uM
# T1 construct: This construct contains residues T544-V976 of cKit (except for the D816V mutation and the deletion of residues V559 and V560); GST (N); TEV cleavage site (N); purchased deCODE Biostructures
# Procedure: In this assay, the oxidation of NADH (measured by decrease in absorbance at 340 nm) was continuously monitored spectrophotometrically. […] The inhibition reaction was started by mixing serial diluted test compound with the above reaction mixture. The absorption at 340 nm was monitored continuously for 5 hours at 30° C. on Synergy 2 plate reader (BioTech). […] The protein construct was prepared by deCODE Biostructures using procedures known in the art. This construct contains […] of cKit (except for the D816V […]), an N-terminal tag, a GST-fusion sequence and a TEV cleavage site. This construct is identical to Seq ID no. 1 except for the D816V […].
# [5] = molecular target: T2, c-KIT D816V kinase (Seq ID no. 4) (Homo sapiens, UniProt P10721, D816V); experiment: c-KIT D816V kinase Assay; assay type: biochemical; details: enzymatic assay, ATP 200 uM
# T2 construct: D816V c-KIT (residues T544-V976 with N-terminal GST fusion, 16 nM); purchased deCODE Biostructures
# Procedure: (§1) In this assay, the oxidation of NADH (measured by decrease in absorbance at 340 nm) was continuously monitored spectrophotometrically. […] The inhibition reaction was started by mixing serial diluted test compound with the above reaction mixture. The absorption at 340 nm was monitored continuously for 5 hours at 30° C. on Synergy 2 plate reader (BioTech).
# The protein construct was prepared by deCODE Biostructures using procedures known in the art. The construct contains residues T544-V976 of cKit, an N-terminal tag, a GST-fusion sequence and a TEV cleavage site. This construct is identical to Seq ID no. 1 except for the D816V mutation.
# [6] = molecular target: T3, c-KIT T670I kinase (Seq ID no. 6) (Homo sapiens, UniProt P10721, T670I); experiment: c-KIT T670I Kinase Assay; assay type: biochemical; details: enzymatic assay, ATP 200 uM
# T3 construct: GST (N); TEV cleavage site (N); purchased deCODE Biostructures
# Procedure: (§2) In this assay, the oxidation of NADH (measured by decrease in absorbance at 340 nm) was continuously monitored spectrophotometrically. […] The inhibition reaction was started by mixing serial diluted test compound with the above reaction mixture. The absorption at 340 nm was monitored continuously for 5 hours at 30° C. on Synergy 2 plate reader (BioTech). […] The protein construct was prepared by deCODE Biostructures using procedures known in the art. The construct contains […] of cKit, an N-terminal tag, a GST-fusion sequence and a TEV cleavage site. This construct is identical to Seq ID no.
# [7] = molecular target: T4, c-KIT kinase (Seq ID no. 1) (Homo sapiens, UniProt P10721); experiment: c-KIT Kinase Assay (pyruvate kinase/lactate dehydrogenase coupled); assay type: biochemical; details: enzymatic assay, ATP 200 μM; read-out: KIT (wt)
# T4 construct: GST (N); TEV cleavage site (N); purchased deCODE Biostructures
# Procedure: In this assay, the oxidation of NADH (measured by decrease in absorbance at 340 nm) was continuously monitored spectrophotometrically. […] The absorption at 340 nm was monitored continuously for 2 hours at 30° C. on Synergy 2 (BioTeK). The reaction rate was calculated using the 0 to 1 h time frame. Percent inhibition was obtained by comparison of reaction rate with that of a control (i.e. with no test compound). IC50 values were calculated from a series of percent inhibition values determined at a range of inhibitor concentrations using software routines as implemented in the GraphPad Prism software package. The protein construct was prepared by deCODE Biostructures using procedures known in the art. The construct contains […] of cKit, an N-terminal tag, a GST-fusion sequence and a TEV cleavage site.
# [8] = molecular target: T5, Phospho-KIT (Tyr719) in GIST882 cells (Homo sapiens, UniProt P10721, K642E); experiment: GIST882 KIT Western Blot; assay type: cell-based; details: 4 hours, read-out: pKIT suppression by western blot analysi GIST 882
# T5 construct: endogenous in cells; host or cells: GIST882
# Procedure: GIST48, GIST430, and GIST882 cells were obtained from J. Fletcher (Brigham and Women's Hospital, Boston, Mass.). GIST T1 cells were obtained from B. Rubin (Cleveland Clinic, Cleveland, Ohio) and Professor Takahiro Taguchi (Kochi Medical School, Nankoku, Kochi, Japan). […] GIST430 cells were grown in Ham's F10 medium supplemented with 15% characterized fetal bovine serum (Invitrogen, Carlsbad, Calif.), 30 mg/L bovine pituitary extract (BD Biosciences, San Jose, Calif.), 0.5% Mito+ serum extender (BD Biosciences, San Jose, Calif.), 1 unit/mL penicillin G, 1 μg/ml streptomycin, and 0.29 mg/mL L-glutamine at 37° C., 5% CO2, 95% humidity. GIST T1 cells were grown in DMEM medium supplemented with 10% characterized fetal bovine serum (Invitrogen, Carlsbad, Calif.), 1 unit/mL penicillin G, 1 ng/ml streptomycin, and 0.29 mg/mL L-glutamine at 37° C., 5% CO2, and 95% humidity. Cells were allowed to expand until reaching 70-95% confluence at which point they were subcultured or harvested for assay use.
# Two hundred fifty thousand cells were added per well in a 24-well tissue-culture treated plate. Cells were then incubated overnight at 37° C., 5% CO2, 95% humidity. Medium was aspirated, cells were washed with PBS, and serum-free RPMI1640 medium was added. A serial dilution of test compound was added to plates containing cells and plates were incubated for 4 hours at 37° C., 5% CO2, 95% humidity. Cells were washed with PBS, then lysed. Cell lysates were separated by SDS-PAGE and transferred to PVDF. Phospho-KIT (Tyr719) was detected using an antibody from Cell Signaling Technology (Beverly, Mass.), ECL Plus detection reagent (GE Healthcare, Piscataway, N.J.) and a Molecular Devices Storm 840 phosphorimager in fluorescence mode. Blots were stripped and probed for total KIT using an antibody from Santa Cruz Biotech (Santa Cruz, Calif.). IC50 values were calculated using Prism software (Graphpad, San Diego, Calif.).
# [9] = molecular target: T6, c-KIT V654A kinase (Seq ID no. 2) (Homo sapiens, UniProt P10721, V654A); experiment: c-KIT V654A Kinase Assay; assay type: biochemical; details: enzymatic assay, ATP 200 μM
# T6 construct: V654A c-Kit (residues T544-V976 with N-terminal GST fusion, 47 nM); purchased deCODE Biostructures
# Procedure: as §1, with “6” for “5”
# The protein construct was prepared by deCODE Biostructures using procedures known in the art. The construct contains residues T544-V976 of cKit, an N-terminal tag, a GST-fusion sequence and a TEV cleavage site. This construct is identical to Seq ID no.
# [10] = molecular target: T7, c-KIT D816H kinase (Seq ID no. 3) (Homo sapiens, UniProt P10721, D816H); experiment: c-KIT D816H Kinase Assay; assay type: biochemical; details: enzymatic assay, ATP 200 μM
# T7 construct: GST (N); TEV cleavage site (N); purchased deCODE Biostructures
# Procedure: as §2, with “6” for “5”, “no. 1 except for the D816H mutation.” for “no.”
# Phospho-KIT (Tyr719) in GIST48 cells, sequence (P10721 whole entry V560D/D820A, form open): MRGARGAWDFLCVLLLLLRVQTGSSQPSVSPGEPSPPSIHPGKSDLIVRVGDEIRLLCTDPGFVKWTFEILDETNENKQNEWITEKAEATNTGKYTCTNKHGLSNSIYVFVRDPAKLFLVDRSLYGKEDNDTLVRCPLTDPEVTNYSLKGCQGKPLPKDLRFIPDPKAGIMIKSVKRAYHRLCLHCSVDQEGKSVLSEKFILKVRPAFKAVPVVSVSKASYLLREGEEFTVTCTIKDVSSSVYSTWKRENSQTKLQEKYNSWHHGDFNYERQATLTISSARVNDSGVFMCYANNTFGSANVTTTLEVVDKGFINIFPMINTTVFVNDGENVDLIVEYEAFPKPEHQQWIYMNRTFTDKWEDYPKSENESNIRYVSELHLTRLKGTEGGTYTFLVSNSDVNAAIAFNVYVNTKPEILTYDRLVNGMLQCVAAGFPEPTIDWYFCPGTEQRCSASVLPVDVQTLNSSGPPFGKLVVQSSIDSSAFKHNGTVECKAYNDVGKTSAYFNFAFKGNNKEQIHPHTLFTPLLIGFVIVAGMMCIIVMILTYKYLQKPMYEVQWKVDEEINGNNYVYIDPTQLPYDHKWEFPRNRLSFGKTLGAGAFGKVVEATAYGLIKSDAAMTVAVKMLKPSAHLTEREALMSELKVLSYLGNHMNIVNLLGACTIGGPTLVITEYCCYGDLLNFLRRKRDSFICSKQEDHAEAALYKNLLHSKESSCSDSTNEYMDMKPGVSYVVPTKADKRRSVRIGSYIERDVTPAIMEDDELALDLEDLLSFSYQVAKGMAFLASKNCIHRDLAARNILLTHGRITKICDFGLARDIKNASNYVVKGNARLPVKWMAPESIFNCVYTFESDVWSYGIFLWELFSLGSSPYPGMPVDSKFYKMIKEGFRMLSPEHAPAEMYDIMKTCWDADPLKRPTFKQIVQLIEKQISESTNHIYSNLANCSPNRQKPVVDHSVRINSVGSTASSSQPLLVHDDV
# T7 sequence (P10721 544-976 D816H): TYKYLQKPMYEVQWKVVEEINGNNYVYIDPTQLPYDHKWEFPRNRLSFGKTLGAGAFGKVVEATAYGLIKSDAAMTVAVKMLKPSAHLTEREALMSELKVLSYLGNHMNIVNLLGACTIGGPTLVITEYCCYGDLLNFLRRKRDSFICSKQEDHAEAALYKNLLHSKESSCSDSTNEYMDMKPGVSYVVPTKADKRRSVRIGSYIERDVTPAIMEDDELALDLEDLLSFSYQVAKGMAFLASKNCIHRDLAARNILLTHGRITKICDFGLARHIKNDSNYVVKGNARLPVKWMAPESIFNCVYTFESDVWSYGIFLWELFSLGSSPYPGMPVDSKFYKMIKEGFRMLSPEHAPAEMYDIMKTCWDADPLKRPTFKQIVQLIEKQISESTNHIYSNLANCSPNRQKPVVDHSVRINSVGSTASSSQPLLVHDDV
# T2 sequence (P10721 544-976 D816V): as the sequence (P10721 544-976 D816H) above, with H273V counted along it
# T4 sequence (P10721 with tags, fused parts or gaps): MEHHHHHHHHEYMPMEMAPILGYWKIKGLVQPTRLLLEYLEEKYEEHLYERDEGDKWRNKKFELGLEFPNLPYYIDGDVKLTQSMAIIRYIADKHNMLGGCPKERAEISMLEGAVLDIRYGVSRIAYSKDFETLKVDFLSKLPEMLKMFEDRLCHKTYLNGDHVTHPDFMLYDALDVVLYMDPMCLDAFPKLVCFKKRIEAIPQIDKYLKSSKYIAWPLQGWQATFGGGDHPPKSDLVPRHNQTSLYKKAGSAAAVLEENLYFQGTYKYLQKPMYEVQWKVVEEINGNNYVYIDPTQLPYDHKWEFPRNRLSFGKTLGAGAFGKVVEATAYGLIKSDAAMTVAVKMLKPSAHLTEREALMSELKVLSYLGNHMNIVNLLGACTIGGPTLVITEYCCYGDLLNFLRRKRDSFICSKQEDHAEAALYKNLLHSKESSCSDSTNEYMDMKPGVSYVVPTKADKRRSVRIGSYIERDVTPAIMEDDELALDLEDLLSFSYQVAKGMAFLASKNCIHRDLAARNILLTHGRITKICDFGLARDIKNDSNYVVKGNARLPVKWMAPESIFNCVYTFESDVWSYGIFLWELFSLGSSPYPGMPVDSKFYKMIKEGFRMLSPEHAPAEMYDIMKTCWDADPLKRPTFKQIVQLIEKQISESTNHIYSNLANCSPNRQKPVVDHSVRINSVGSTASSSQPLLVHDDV
# Phospho-KIT (Tyr719) in GIST430 cells, sequence (P10721 with tags, fused parts or gaps DEL560-576/V654A, form open): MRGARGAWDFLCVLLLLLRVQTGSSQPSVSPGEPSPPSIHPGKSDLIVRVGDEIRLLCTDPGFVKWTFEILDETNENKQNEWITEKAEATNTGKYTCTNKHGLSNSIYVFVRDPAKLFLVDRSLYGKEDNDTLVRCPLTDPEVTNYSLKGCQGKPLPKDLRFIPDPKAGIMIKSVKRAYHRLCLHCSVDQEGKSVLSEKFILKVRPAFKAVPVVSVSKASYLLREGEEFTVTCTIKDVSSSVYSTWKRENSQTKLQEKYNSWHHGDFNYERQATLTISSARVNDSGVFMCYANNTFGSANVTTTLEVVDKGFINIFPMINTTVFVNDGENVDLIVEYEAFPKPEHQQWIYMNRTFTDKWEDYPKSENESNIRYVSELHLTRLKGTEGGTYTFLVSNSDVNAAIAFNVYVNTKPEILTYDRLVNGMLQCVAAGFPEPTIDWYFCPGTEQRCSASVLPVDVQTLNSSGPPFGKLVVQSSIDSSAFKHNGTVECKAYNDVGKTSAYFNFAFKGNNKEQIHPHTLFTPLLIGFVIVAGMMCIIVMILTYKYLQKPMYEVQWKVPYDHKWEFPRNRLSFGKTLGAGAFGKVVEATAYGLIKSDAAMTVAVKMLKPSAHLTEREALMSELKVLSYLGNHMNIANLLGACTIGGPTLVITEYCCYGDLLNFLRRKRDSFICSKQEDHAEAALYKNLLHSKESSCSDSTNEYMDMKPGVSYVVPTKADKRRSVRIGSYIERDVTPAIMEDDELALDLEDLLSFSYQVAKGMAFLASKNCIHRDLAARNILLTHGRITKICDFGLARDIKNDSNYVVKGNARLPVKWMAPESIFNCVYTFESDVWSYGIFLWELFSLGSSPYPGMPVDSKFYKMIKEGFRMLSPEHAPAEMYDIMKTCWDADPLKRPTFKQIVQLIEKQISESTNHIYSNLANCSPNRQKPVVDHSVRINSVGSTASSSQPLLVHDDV
# T3 sequence (P10721 544-976 T670I): as the sequence (P10721 544-976 D816H) above, with T127I, H273D counted along it
# T6 sequence (P10721 544-976 V654A): as the sequence (P10721 544-976 D816H) above, with V111A, H273D counted along it
# T1 sequence (P10721 with tags, fused parts or gaps DEL559-560/D816V): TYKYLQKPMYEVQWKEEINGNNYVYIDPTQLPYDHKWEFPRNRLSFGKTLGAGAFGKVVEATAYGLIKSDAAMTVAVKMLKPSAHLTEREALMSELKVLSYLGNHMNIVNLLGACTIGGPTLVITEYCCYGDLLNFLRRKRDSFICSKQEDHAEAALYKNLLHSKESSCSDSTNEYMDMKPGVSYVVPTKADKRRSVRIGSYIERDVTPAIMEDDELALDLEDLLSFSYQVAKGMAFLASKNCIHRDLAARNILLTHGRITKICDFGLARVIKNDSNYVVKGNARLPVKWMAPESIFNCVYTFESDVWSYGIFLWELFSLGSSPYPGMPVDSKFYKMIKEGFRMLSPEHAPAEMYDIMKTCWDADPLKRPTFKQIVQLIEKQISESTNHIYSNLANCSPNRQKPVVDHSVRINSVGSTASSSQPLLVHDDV
# T5 sequence (P10721 26-976 K642E): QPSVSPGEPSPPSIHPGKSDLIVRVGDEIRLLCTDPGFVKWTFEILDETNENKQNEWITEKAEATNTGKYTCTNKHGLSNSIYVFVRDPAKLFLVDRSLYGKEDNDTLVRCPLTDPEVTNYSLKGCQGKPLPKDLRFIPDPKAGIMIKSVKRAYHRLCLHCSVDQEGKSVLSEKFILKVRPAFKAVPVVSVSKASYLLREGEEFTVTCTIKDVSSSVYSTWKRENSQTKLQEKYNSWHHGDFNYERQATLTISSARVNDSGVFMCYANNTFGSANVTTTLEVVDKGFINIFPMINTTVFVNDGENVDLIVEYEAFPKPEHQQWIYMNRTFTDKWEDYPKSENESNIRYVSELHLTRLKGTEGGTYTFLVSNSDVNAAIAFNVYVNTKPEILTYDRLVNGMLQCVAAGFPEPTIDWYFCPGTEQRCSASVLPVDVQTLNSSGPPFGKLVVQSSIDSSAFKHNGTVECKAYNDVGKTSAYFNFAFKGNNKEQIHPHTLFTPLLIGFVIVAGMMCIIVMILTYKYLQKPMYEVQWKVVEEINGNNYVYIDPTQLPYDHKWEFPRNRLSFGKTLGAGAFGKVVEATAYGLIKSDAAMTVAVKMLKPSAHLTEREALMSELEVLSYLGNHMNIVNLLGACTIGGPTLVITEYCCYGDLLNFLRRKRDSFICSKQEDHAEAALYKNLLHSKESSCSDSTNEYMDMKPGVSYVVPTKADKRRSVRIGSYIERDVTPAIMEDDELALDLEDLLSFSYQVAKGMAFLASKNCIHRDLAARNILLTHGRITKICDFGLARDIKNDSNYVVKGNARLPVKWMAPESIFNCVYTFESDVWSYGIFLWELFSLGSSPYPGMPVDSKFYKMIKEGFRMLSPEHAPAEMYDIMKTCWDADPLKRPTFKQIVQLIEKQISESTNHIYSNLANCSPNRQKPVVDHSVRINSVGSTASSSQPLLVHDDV
smiles,measurement,setting,value
"CCn1c(=O)c(-c2cc(NC(=O)Nc3ccccc3)c(F)cc2Cl)cc2cnc(NC)cc21 [Example 3, 1-(4-chloro-5-(1-ethyl-7-(methylamino)-2-oxo-1,2-dihydro-1,6-naphthyridin-3-yl)-2-fluorophenyl)-3-phenylurea]",IC50,[1],10 to 100 nM
same,IC50,[2],10 to 100 nM
same,IC50,[3],100 to 1000 nM
"CCn1c(=O)c(-c2cc(NC(=O)Nc3cccc(Cl)c3)c(F)cc2F)cc2cnc(NC)cc21 [Example 17, 1-(3-chlorophenyl)-3-(5-(1-ethyl-7-(methylamino)-2-oxo-1,2-dihydro-1,6-naphthyridin-3-yl)-2,4-difluorophenyl)urea]",IC50,[2],10 to 100 nM
same,IC50,[3],10 to 100 nM
same,IC50,[4],100 to 1000 nM
same,IC50,[5],10 to 100 nM
"CCn1c(=O)c(-c2cc(NC(=O)Nc3ccccc3)c(F)cc2C)cc2cnc(NC)cc21 [Example 23, 1-(5-(1-ethyl-7-(methylamino)-2-oxo-1,2-dihydro-1,6-naphthyridin-3-yl)-2-fluoro-4-methylphenyl)-3-phenylurea]",IC50,[1],10 to 100 nM
same,IC50,[2],10 to 100 nM
same,IC50,[3],100 to 1000 nM
"CCn1c(=O)c(-c2cc(NC(=O)Nc3ccccc3)c(F)cc2Br)cc2cnc(NC(C)=O)cc21 [Example 53, 1-(5-(7-acetamido-1-ethyl-2-oxo-1,2-dihydro-1,6-naphthyridin-3-yl)-4-bromo-2-fluorophenyl)-3-phenylurea]",IC50,[2],< 10 nM
same,IC50,[3],100 to 1000 nM
same,IC50,[6],10 to 100 nM
same,IC50,[7],< 10 nM
same,IC50,[4],< 10 nM
same,IC50,[8],10 to 100 nM
same,IC50,[9],10 to 100 nM
same,IC50,[5],< 10 nM
"CC(=O)Nc1cc2c(cn1)cc(-c1cc(NC(=O)Nc3cccc(F)c3)c(F)cc1Cl)c(=O)n2C(C)C [Example 99, N-(3-(2-chloro-4-fluoro-5-(3-(3-fluorophenyl)ureido)phenyl)-1-isopropyl-2-oxo-1,2-dihydro-1,6-naphthyridin-7-yl)acetamide]",IC50,[6],10 to 100 nM
same,IC50,[7],< 10 nM
same,IC50,[9],10 to 100 nM
same,IC50,[10],10 to 100 nM
same,IC50,[5],< 10 nM
"Cc1cc(F)c(NC(=O)Nc2ccccc2)cc1-c1cc2cnc(NC(=O)N3CCC3)cc2n(C(C)C)c1=O [Example 109, N-(3-(4-fluoro-2-methyl-5-(3-phenylureido)phenyl)-1-isopropyl-2-oxo-1,2-dihydro-1,6-naphthyridin-7-yl)azetidine-1-carboxamide]",IC50,[3],10 to 100 nM
same,IC50,[6],10 to 100 nM
same,IC50,[7],10 to 100 nM
same,IC50,[9],10 to 100 nM
same,IC50,[10],10 to 100 nM
same,IC50,[5],10 to 100 nM
"CCn1c(=O)c(-c2cc(NC(=O)Nc3ccccc3)c(F)cc2C)cc2cnc(Nc3cnn(C)c3)cc21 [Example 115, 1-(5-(1-ethyl-7-((1-methyl-1H-pyrazol-4-yl)amino)-2-oxo-1,2-dihydro-1,6-naphthyridin-3-yl)-2-fluoro-4-methylphenyl)-3-phenylurea]",IC50,[6],10 to 100 nM
same,IC50,[7],< 10 nM
same,IC50,[9],10 to 100 nM
same,IC50,[10],< 10 nM
same,IC50,[5],< 10 nM
